One test concerns the target MOR (Homo sapiens, UniProt P35372). The experiment in a line: Opioid secondary binding, MOR (Tables 4, 5, 8).
Test [1] addresses T1, KOR (Homo sapiens, UniProt P41145). The experiment in a line: Opioid secondary binding, KOR (Tables 4, 5, 8, 9).
Test [2] deals with T1, KOR. The experiment in a line: [35S]GTPγS binding functional agonist assay on membranes of CHO cells expressing hKOR (reference agonist U69593). Type of test: biochemical. Details: expressed in transfected cells; host or cells: CHO cells, stably transfected; crude membrane fractions. The settings on record: for Emax: read-out: Emax values relative to U69593; for KOR agonist (average percent efficacy relative to cognate agonist): test compound at 10 micromolar, N=4, reference agonist = 100%, CHO-cell line expressing hKOR. The procedure: The compounds prepared herein were tested for bioactivity with opioid receptors. Agonist assays: Data represent the percent efficacy (relative to cognate agonist) of the test compound at 10 micromolar. The response to a saturating concentration of a reference antagonist or to vehicle (usually none or negligible) is set to 0%. […] The response inhibition elicited by a saturating concentration of reference antagonist is set to 100%; the response inhibition (usually none or negligible) elicited by vehicle is set to 0%. The following tables provide data related to the bioactivity for opioid receptors of the compounds described herein.
Table 6 provides data that represent the average percent efficacy (N=4; relative to cognate agonist) of the test compound at 10 micromolar concentration. The response to a saturating concentration of cognate/reference agonist is set to 100%; the response to a saturating concentration of a reference antagonist or to vehicle (usually none or negligible) is set to 0%. All functional assays are performed on stably transfected CHO-cell lines expressing hKOR, hMOR or hDOR.
(§1) Serial dilutions of the test and reference compounds are made in binding buffer at 2× assay concentration (final assay concentrations ranging from 0.1 nM to 10 μM). Crude membrane fractions (1.8 to 3.5 cm2/well) (prepared from 10-cm plates by harvesting PBS-rinsed monolayers, resuspending and lysing in chilled, hypotonic 50 mM Tris-HCl, pH 7.4, centrifuging at 20,000×g, decanting the supernatant and storing at −80 degrees centigrade; typically, one 10-cm plate provides sufficient material for 24 wells) are resuspended in 1.2 ml of assay buffer containing 20 μM GDP, wheat germ agglutinin (WGA)-coated scintillation proximity beads (2.4 mg), and [35S]GTPγS (300 pM final). The suspension is then added (50 μl/well) to 50 μl of the 2× test or reference compounds (each concentration assayed in triplicate) in flexible transparent PET 96-well plates. The reaction plate is sealed and incubated for 90 min at room temperature, then centrifuged for 5 min at 216×g, and finally loaded into a Wallac MicroBeta TriLux counter. Non-specific [35S]GTPγS binding is assessed at the maximum concentration of reference agonist in the presence of 10 μM antagonist. The background signal is measured at 10 μM reference agonist in the presence of 10 μM unlabeled GTPγS. Raw data (dpm) representing total [35S]GTPγS binding (i.e., specific+non-specific binding) are calculated as a percentage of the maximum response by the reference agonist (in this case U69593).
as §1, with “GTPγS.” for “GTPγS. Raw data (dpm) representing total [35S]GTPγS binding (i.e., specific+non-specific binding) are calculated as a percentage of the maximum response by the reference agonist (in this case U69593).”

For the next test, the target named is DOR (Homo sapiens, UniProt P41143). In words: Opioid secondary binding, DOR (Table 4). The settings on record: Opioid secondary binding activity for Formula 10 analogs.
DOR, sequence (P41143 whole entry): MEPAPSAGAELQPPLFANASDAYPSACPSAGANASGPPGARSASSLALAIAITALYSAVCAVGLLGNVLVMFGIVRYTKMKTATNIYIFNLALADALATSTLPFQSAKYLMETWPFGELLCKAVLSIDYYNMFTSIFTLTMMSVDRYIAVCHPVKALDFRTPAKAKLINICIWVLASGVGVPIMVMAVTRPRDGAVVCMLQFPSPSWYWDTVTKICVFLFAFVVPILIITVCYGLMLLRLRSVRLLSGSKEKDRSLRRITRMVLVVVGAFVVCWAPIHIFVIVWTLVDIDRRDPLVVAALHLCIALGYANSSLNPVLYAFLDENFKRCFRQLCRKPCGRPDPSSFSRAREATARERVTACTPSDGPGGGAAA
The mark [3] stands for this setting: Opioid secondary binding activity for Formula 10 analogs, read-out: MOR, Ki.
Where [4] appears, read: Opioid secondary binding activity for Formula 10 analogs, read-out: KOR, Ki.

Like-named read-outs stand apart in the source and are kept apart here.

MOR, sequence (P35372 whole entry): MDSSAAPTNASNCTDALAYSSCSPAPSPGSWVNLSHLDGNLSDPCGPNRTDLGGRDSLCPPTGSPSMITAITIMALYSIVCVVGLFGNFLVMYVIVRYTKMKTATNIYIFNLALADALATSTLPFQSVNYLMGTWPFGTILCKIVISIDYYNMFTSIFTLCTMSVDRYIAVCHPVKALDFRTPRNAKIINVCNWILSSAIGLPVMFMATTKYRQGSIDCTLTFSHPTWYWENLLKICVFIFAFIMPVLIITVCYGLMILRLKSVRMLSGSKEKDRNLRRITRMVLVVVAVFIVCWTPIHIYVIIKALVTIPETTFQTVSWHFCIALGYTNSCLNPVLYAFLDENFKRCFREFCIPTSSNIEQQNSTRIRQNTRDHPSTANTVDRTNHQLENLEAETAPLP
T1 sequence (P41145 whole entry): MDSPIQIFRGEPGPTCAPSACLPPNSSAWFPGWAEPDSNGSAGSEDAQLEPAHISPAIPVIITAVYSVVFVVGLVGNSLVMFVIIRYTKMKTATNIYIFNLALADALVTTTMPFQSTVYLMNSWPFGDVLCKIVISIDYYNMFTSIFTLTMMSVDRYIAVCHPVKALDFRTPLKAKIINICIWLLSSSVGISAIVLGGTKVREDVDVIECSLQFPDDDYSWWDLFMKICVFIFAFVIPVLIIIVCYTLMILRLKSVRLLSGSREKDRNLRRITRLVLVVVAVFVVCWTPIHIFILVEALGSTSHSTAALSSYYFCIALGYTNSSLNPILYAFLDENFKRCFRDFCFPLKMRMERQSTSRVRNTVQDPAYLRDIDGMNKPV

As to `O=C(Nc1ccc(Br)c(C(F)(F)F)c1)[C@H]1CC=C[C@H]2CCN(Cc3ccccc3)C(=O)[C@@H]12` [11869*], the Ki at MOR (setting [3]) was determined as 648 nM; on KOR [1] (setting [4]), 16.5 nM. Moreover, the Emax on KOR [2] came to 68%.

`O=C(OCc1ccccc1)C(Cc1ccccc1)NC(=O)C1CC=CC2CCN(Cc3ccc(Cl)cc3)C(=O)C21` (mixture of isomers) [compound 11813]: the inhibition constant Ki at MOR (setting [3]) stood at 1910 nM; at KOR [1] (setting [4]), 1160 nM.

On to `COc1ccc(CN2CC[C@H]3C=CC[C@@H](C(=O)Nc4ccccc4)[C@H]3C2=O)cc1OC` (racemic) [compound 8942], for which the figures for the Ki at MOR (setting [3]), on KOR [1] (setting [4]) and at DOR were 3520 nM, 3060 nM and 4610 nM, respectively. The “KOR agonist (average percent efficacy relative to cognate agonist)” value on KOR [2] worked out at 5.4%.

For the compound `O=C(Nc1cc(C(F)(F)F)ccc1Cl)C1CC=CC2CCN(CCc3ccccc3)C(=O)C21` (racemic) [compound 11849], the figures for the Ki on MOR (setting [3]) and on KOR [1] (setting [4]) were 2410 nM and 1820 nM, respectively.

In the case of `COc1ccc(CNC(=O)[C@@H]2CC=C[C@@H]3CCN(Cc4ccc(Cl)c(Cl)c4)C(=O)[C@@H]32)cc1` (racemic) [compound 8928], the Ki on MOR (setting [3]) was determined as 7400 nM; at KOR [1] (setting [4]) it was 964 nM. Moreover, the “KOR agonist (average percent efficacy relative to cognate agonist)” value at KOR [2] came out at 17.7%.

In the case of `O=C(Nc1ccccc1)[C@@H]1CC=C[C@@H]2CCN(Cc3ccc(Cl)c(Cl)c3)C(=O)[C@@H]21` (racemic) [compound 8941], the results for the Ki at MOR (setting [3]), at KOR [1] (setting [4]) and on DOR were 2700 nM, 259 nM and 1110 nM, respectively. For the same compound, at KOR [2], the “KOR agonist (average percent efficacy relative to cognate agonist)” value was determined as 79%.

In the case of `COc1ccc(CN2CC[C@H]3C=CC[C@@H](C(=O)Nc4ccc(Cl)cc4Cl)[C@H]3C2=O)cc1OC` (racemic) [compound 8952], on MOR (setting [3]), the Ki is 5660 nM. Further, at KOR [2], the “KOR agonist (average percent efficacy relative to cognate agonist)” value was −2.6%.

For the compound `O=C(Nc1ccc(Cl)c(C(F)(F)F)c1)C1CCCC2CCN(Cc3ccccc3)C(=O)C21` (racemic) [compound 11478], the values for the Ki at MOR (setting [3]) and on KOR [1] (setting [4]) were 1750 nM and 51 nM, respectively.

Regarding `CCCCN1CC[C@H]2C=CC[C@@H](C(=O)Nc3ccc(Cl)c(C(F)(F)F)c3)[C@H]2C1=O` (racemic) [compound 8956], the Ki at MOR (setting [3]) stood at 2220 nM; at KOR [1] (setting [4]), 190 nM. Further, the “KOR agonist (average percent efficacy relative to cognate agonist)” value at KOR [2] came out at 118.7%.

As to `COc1ccc(NC(=O)[C@@H]2CC=C[C@@H]3CCN(Cc4ccc(Cl)c(Cl)c4)C(=O)[C@@H]32)cc1` (racemic) [compound 8947], the results for the Ki at MOR (setting [3]) and at KOR [1] (setting [4]) were 3490 nM and 2560 nM, respectively. Moreover, the “KOR agonist (average percent efficacy relative to cognate agonist)” value at KOR [2] is listed as 17.3%.

`O=C(Nc1ccc(Cl)c(C(F)(F)F)c1)[C@@H]1CC=C[C@@H]2CCN(Cc3ccccc3)C(=O)[C@@H]21` [compound 11789]: the Ki on MOR turned out to be 3480 nM; on KOR [1] it was 132 nM.

Regarding `O=C(Nc1ccccc1)[C@H]1CC=C[C@H]2CCN(Cc3ccccc3)C(=O)[C@@H]12` [compound 11794], the Ki on MOR (setting [3]) stood at 1660 nM; on KOR [1] (setting [4]) it was 137 nM.

As to `O=C(NCCc1ccccc1)[C@@H]1CC=C[C@@H]2CCN(Cc3ccccc3)C(=O)[C@@H]21` (racemic) [compound 8916], the Ki amounted to 4600 nM on MOR (setting [3]) and 561 nM on KOR [1] (setting [4]). In addition, the “KOR agonist (average percent efficacy relative to cognate agonist)” value on KOR [2] stood at 110.6%.

Turning to `Cc1cc(NC(=O)[C@@H]2CC=C[C@@H]3CCN(CCc4ccccc4)C(=O)[C@@H]32)ccc1Cl` (racemic) [compound 11878], the Ki on MOR (setting [3]) came to 1670 nM; at KOR [1] (setting [4]) it was 4120 nM.

Turning to `O=C(Nc1ccc(Cl)c(C(F)(F)F)c1)[C@@H]1CC=C[C@H]2CCN(Cc3ccccc3)C(=O)[C@H]21` [compound 11795], the results for the Ki on MOR (setting [3]) and at KOR [1] were 5420 nM and 158 nM, respectively.

Turning to `Cc1cc(NC(=O)[C@@H]2CC=C[C@@H]3CCN(Cc4ccccc4)C(=O)[C@@H]32)ccc1Cl` (racemic) [compound 11872], the Ki at MOR (setting [3]) was 2180 nM; on KOR [1] (setting [4]), 86 nM. The “Emax values relative to U69593” value on KOR [2] ([35S]GTPγS data-fit top relative to reference agonist U69593) worked out at 123%.

On to `O=C(Nc1ccc(Br)c(C(F)(F)F)c1)[C@@H]1CC=C[C@@H]2CCN(CCc3ccccc3)C(=O)[C@@H]21` (racemic) [compound 11875], for which the results for the inhibitory constant (Ki) at MOR (setting [3]) and on KOR [1] (setting [4]) were 1180 nM and 2280 nM, respectively.

Consider `O=C(NCc1ccc(Cl)c(C(F)(F)F)c1)[C@@H]1CC=C[C@@H]2CCN(Cc3ccccc3)C(=O)[C@@H]21` (racemic) [compound 11868], for which the results for the Ki at MOR (setting [3]) and at KOR [1] (setting [4]) were 2160 nM and 455 nM, respectively.

As to `O=C(Nc1ccc(Cl)c(C(F)(F)F)c1)[C@H]1CC=C[C@H]2CCN(Cc3ccccc3)C(=O)[C@@H]12` [compound 11790], the values for the Ki on MOR and at KOR [1] were 208 nM and 3.2 nM, respectively. The Emax at KOR [2] amounted to 78%.

As for `O=C(Nc1ccccc1)[C@@H]1CC=C[C@@H]2CCN(Cc3ccccc3)C(=O)[C@@H]21` (racemic) [compound 8937, 2-Benzyl-N-phenyl-1-oxo-1,2,3,4,4a,7,8,8a-octahydroisoquinoline-8-carboxamide], the Ki was determined as 2570 nM at MOR (setting [3]), 146 nM at KOR [1] (setting [4]) and 850 nM at DOR. In addition, the “KOR agonist (average percent efficacy relative to cognate agonist)” value at KOR [2] amounted to 136.6%.

On to `O=C(Nc1ccc(Cl)c(C(F)(F)F)c1)[C@@H]1CC=C[C@@H]2CCN(Cc3ccccc3)C(=O)[C@@H]21` (racemic) [compound 8620], for which the Ki on MOR (setting [3]) was 3550 nM; on KOR [1] it was 5.3 nM. Moreover, the maximal effect (Emax) at KOR [2] was 67%.

As to `O=C1[C@H]2[C@H](C=CC[C@H]2C(=O)N2CCN(c3ccccc3)CC2)CCN1Cc1ccccc1` (racemic) [compound 8912], the Ki at MOR (setting [3]) was determined as 2400 nM; at KOR [1] (setting [4]), 4800 nM; on DOR, 3850 nM. Moreover, the “KOR agonist (average percent efficacy relative to cognate agonist)” value at KOR [2] was 8%.

Regarding `COc1ccc(CN2CC[C@H]3C=CC[C@@H](C(=O)N4CCN(c5ccccc5)CC4)[C@H]3C2=O)cc1OC` (racemic) [compound 8915], the inhibitory constant (Ki) at MOR (setting [3]) came to 5540 nM; on KOR [1] (setting [4]), 8900 nM; on DOR, 4690 nM. The “KOR agonist (average percent efficacy relative to cognate agonist)” value at KOR [2] is 6.7%.

Source of the values: patent publication US8735391B2, “Synthesis of functionalized octahydro-isoquinolin-1-one-8-carboxamides, octahydro-isoquinolin-1-one-8-carboxylic esters and analogs, and therapeutic methods” (University of Kansas, priority 2008, dated 2014).
